From ChEMBL document CHEMBL1649349, “Discovery of a novel nitroimidazolyl-oxazolidinone hybrid with potent anti Gram-positive activity: Synthesis and antibacterial evaluation” (Eur J Med Chem, 2011)
≈ marks a conversion by molar mass, not a printed value.

Tests used:
[1] = Cytotoxicity against mouse NIH/3T3 cells by MTT colorimetric assay; format: cell-based; settings: NIH3T3
[2] = system: Staphylococcus warneri; assay: Antimicrobial activity against Staphylococcus warneri ATCC 27836 by conventional agar-dilution method; format: functional
[3] = system: Staphylococcus aureus; assay: Antimicrobial activity against methicillin-resistant Staphylococcus aureus 17 by conventional agar-dilution method; format: functional
[4] = system: Mammaliicoccus lentus; assay: Antimicrobial activity against Staphylococcus lentus ATCC 29070 by conventional agar-dilution method; format: functional
[5] = system: Staphylococcus epidermidis; assay: Antimicrobial activity against Staphylococcus epidermidis ATCC 12228 by conventional agar-dilution method; format: functional
[6] = system: Micrococcus luteus; assay: Antimicrobial activity against Micrococcus luteus ATCC 9341 by conventional agar-dilution method; format: functional
[7] = system: Staphylococcus aureus; assay: Antimicrobial activity against Staphylococcus aureus ATCC 6538p by conventional agar-dilution method; format: functional
[8] = system: Staphylococcus saprophyticus; assay: Antimicrobial activity against Staphylococcus saprophyticus ATCC 15305 by conventional agar-dilution method; format: functional
[9] = system: Pseudomonas aeruginosa; assay: Antimicrobial activity against Pseudomonas aeruginosa ATCC 9027 by conventional agar-dilution method; format: functional
[10] = system: Corynebacterium glutamicum; assay: Antimicrobial activity against Corynebacterium glutamicum ATCC 13032 by conventional agar-dilution method; format: functional
[11] = system: Klebsiella pneumoniae; assay: Antimicrobial activity against Klebsiella pneumoniae ATCC 10031 by conventional agar-dilution method; format: functional
[12] = system: Staphylococcus xylosus; assay: Antimicrobial activity against Staphylococcus xylosus ATCC 2997 by conventional agar-dilution method; format: functional
[13] = system: Staphylococcus aureus; assay: Antimicrobial activity against methicillin-resistant Staphylococcus aureus 5 by conventional agar-dilution method; format: functional
[14] = system: Bacillus subtilis; assay: Antimicrobial activity against Bacillus subtilis PTCC 1023 by conventional agar-dilution method; format: functional
[15] = system: Staphylococcus aureus; assay: Antimicrobial activity against methicillin-resistant Staphylococcus aureus 3 by conventional agar-dilution method; format: functional
[16] = system: Escherichia coli; assay: Antimicrobial activity against Escherichia coli ATCC 8739 by conventional agar-dilution method; format: functional

## CC(=O)NC[C@H]1CN(c2ccc(N3CCN(c4nnc(-c5ccc([N+](=O)[O-])s5)s4)CC3)c(F)c2)C(=O)O1
[1]
  IC50: 184 µg/mL (≈ 336 µM)
[2]
  MIC: 0.049 µg/mL (≈ 0.0895 µM)
[3]
  MIC: 0.098 µg/mL (≈ 0.179 µM)
[4]
  MIC: 0.098 µg/mL (≈ 0.179 µM)
[5]
  MIC: 0.024 µg/mL (≈ 0.0438 µM)
[6]
  MIC: 6.25 µg/mL (≈ 11.4 µM)
[7]
  MIC: 0.098 µg/mL (≈ 0.179 µM)
[8]
  MIC: 0.195 µg/mL (≈ 0.356 µM)
[9]
  MIC: > 100 µg/mL
[10]
  MIC: 6.25 µg/mL (≈ 11.4 µM)
[11]
  MIC: 100 µg/mL (≈ 183 µM)
[12]
  MIC: 0.098 µg/mL (≈ 0.179 µM)
[13]
  MIC: 6.25 µg/mL (≈ 11.4 µM)
[14]
  MIC: 0.781 µg/mL (≈ 1.43 µM)
[15]
  MIC: 0.195 µg/mL (≈ 0.356 µM)
[16]
  MIC: > 100 µg/mL

## CC(=O)NC[C@H]1CN(c2ccc(N3CCN(c4nnc(-c5ccc([N+](=O)[O-])o5)s4)CC3)c(F)c2)C(=O)O1
[1]
  IC50: 21.8 µg/mL (≈ 41 µM)
[2]
  MIC: 0.006 µg/mL (≈ 0.0113 µM)
[3]
  MIC: 0.012 µg/mL (≈ 0.0226 µM)
[4]
  MIC: 0.012 µg/mL (≈ 0.0226 µM)
[5]
  MIC: 0.006 µg/mL (≈ 0.0113 µM)
[6]
  MIC: 0.391 µg/mL (≈ 0.736 µM)
[7]
  MIC: 0.012 µg/mL (≈ 0.0226 µM)
[8]
  MIC: 0.024 µg/mL (≈ 0.0452 µM)
[9]
  MIC: > 100 µg/mL
[10]
  MIC: 0.195 µg/mL (≈ 0.367 µM)
[11]
  MIC: 50 µg/mL (≈ 94.1 µM)
[12]
  MIC: 0.024 µg/mL (≈ 0.0452 µM)
[13]
  MIC: 0.195 µg/mL (≈ 0.367 µM)
[14]
  MIC: 0.391 µg/mL (≈ 0.736 µM)
[15]
  MIC: 0.049 µg/mL (≈ 0.0922 µM)
[16]
  MIC: > 100 µg/mL

## CC(=O)NC[C@H]1CN(c2ccc(N3CCN(c4nnc(-c5ncc([N+](=O)[O-])n5C)s4)CC3)c(F)c2)C(=O)O1
[1]
  IC50: > 200 µg/mL
[2]
  MIC: 0.006 µg/mL (≈ 0.011 µM)
[3]
  MIC: 0.024 µg/mL (≈ 0.044 µM)
[4]
  MIC: 0.098 µg/mL (≈ 0.18 µM)
[5]
  MIC: 0.024 µg/mL (≈ 0.044 µM)
[6]
  MIC: 0.195 µg/mL (≈ 0.357 µM)
[7]
  MIC: 0.098 µg/mL (≈ 0.18 µM)
[8]
  MIC: 0.024 µg/mL (≈ 0.044 µM)
[9]
  MIC: > 100 µg/mL
[10]
  MIC: 0.195 µg/mL (≈ 0.357 µM)
[11]
  MIC: 0.781 µg/mL (≈ 1.43 µM)
[12]
  MIC: 0.049 µg/mL (≈ 0.0898 µM)
[13]
  MIC: 0.195 µg/mL (≈ 0.357 µM)
[14]
  MIC: 0.098 µg/mL (≈ 0.18 µM)
[15]
  MIC: 0.391 µg/mL (≈ 0.717 µM)
[16]
  MIC: > 100 µg/mL

## CC(=O)NC[C@H]1CN(c2ccc(N3CCNCC3)c(F)c2)C(=O)O1
[1]
  IC50: > 200 µg/mL
[2]
  MIC: 18 µg/mL (≈ 53.5 µM)
[3]
  MIC: 25 µg/mL (≈ 74.3 µM)
[4]
  MIC: 12.5 µg/mL (≈ 37.2 µM)
[5]
  MIC: 6.25 µg/mL (≈ 18.6 µM)
[6]
  MIC: 1.56 µg/mL (≈ 4.65 µM)
[7]
  MIC: 12.5 µg/mL (≈ 37.2 µM)
[8]
  MIC: 3.12 µg/mL (≈ 9.29 µM)
[9]
  MIC: > 100 µg/mL
[10]
  MIC: 1.56 µg/mL (≈ 4.65 µM)
[11]
  MIC: 25 µg/mL (≈ 74.3 µM)
[12]
  MIC: 3.12 µg/mL (≈ 9.29 µM)
[13]
  MIC: 12.5 µg/mL (≈ 37.2 µM)
[14]
  MIC: 12.5 µg/mL (≈ 37.2 µM)
[15]
  MIC: 25 µg/mL (≈ 74.3 µM)
[16]
  MIC: 50 µg/mL (≈ 149 µM)

## O=C(O)c1cn(C2CC2)c2cc(N3CCNCC3)c(F)cc2c1=O [CIPROFLOXACIN]
[2]
  MIC: 0.195 µg/mL (≈ 0.589 µM)
[3]
  MIC: 0.391 µg/mL (≈ 1.18 µM)
[4]
  MIC: 0.781 µg/mL (≈ 2.36 µM)
[5]
  MIC: 0.391 µg/mL (≈ 1.18 µM)
[6]
  MIC: 3.12 µg/mL (≈ 9.43 µM)
[7]
  MIC: 0.195 µg/mL (≈ 0.589 µM)
[8]
  MIC: 0.098 µg/mL (≈ 0.296 µM)
[9]
  MIC: 0.0391 µg/mL (≈ 0.118 µM)
[10]
  MIC: 0.391 µg/mL (≈ 1.18 µM)
[11]
  MIC: 0.003 µg/mL (≈ 0.00905 µM)
[12]
  MIC: 0.391 µg/mL (≈ 1.18 µM)
[13]
  MIC: 0.391 µg/mL (≈ 1.18 µM)
[14]
  MIC: 0.195 µg/mL (≈ 0.589 µM)
[15]
  MIC: 0.391 µg/mL (≈ 1.18 µM)

## CC(=O)NC[C@H]1CN(c2ccc(N3CCOCC3)c(F)c2)C(=O)O1 [LINEZOLID]
[2]
  MIC: 0.781 µg/mL (≈ 2.32 µM)
[3]
  MIC: 0.781 µg/mL (≈ 2.32 µM)
[4]
  MIC: 1.56 µg/mL (≈ 4.63 µM)
[5]
  MIC: 0.781 µg/mL (≈ 2.32 µM)
[6]
  MIC: 0.781 µg/mL (≈ 2.32 µM)
[7]
  MIC: 0.781 µg/mL (≈ 2.32 µM)
[8]
  MIC: 0.781 µg/mL (≈ 2.32 µM)
[9]
  MIC: > 100 µg/mL
[10]
  MIC: 0.781 µg/mL (≈ 2.32 µM)
[11]
  MIC: 6.25 µg/mL (≈ 18.5 µM)
[12]
  MIC: 0.781 µg/mL (≈ 2.32 µM)
[13]
  MIC: 0.781 µg/mL (≈ 2.32 µM)
[14]
  MIC: 0.391 µg/mL (≈ 1.16 µM)
[15]
  MIC: 0.781 µg/mL (≈ 2.32 µM)
[16]
  MIC: > 100 µg/mL
